Laboratory results taken from PMC5784132, “Investigation of 20S-hydroxyvitamin D3 analogs and their 1α-OH derivatives as potent vitamin D receptor agonists with anti-inflammatory activities” (Scientific Reports, 2018).

How the values were obtained:
CYP24A1 gene expression = test: RT-PCR analysis of CYP24A1 expression in HaCaT cells; type: cell-based; conditions: Homo sapiens, 100 nM, 24 h treatment, read-out: relative mRNA level for CYP24A1 versus vehicle control
Protocol: Figure 7 20S(OH)D3 analogs upregulate the expression of CYP24A1 encoding the vitamin D catabolic enzyme, CYP24A1, with varying efficiencies. […] The mRNA was isolated and the RT-PCR was performed using specific primers for the CYP24A1 gene (see Methods). Data are presented as mean ± SE (n = 3). *p < 0.05, **p < 0.01 and ***p < 0.001 compared with the control.
HaCaT cells were purchased from Thermo Fisher Scientific (Waltham, MA, USA) and were cultured as for the VDRE reporter assay. The RNA from HaCaT keratinocytes treated with secosteroids or from DMSO controls was isolated using the Absolutely RNA Miniprep Kit (Stratagene, La Jolla, CA, USA). Reverse transcription (100 ng RNA/reaction) was performed with the Transcriptor First Strand cDNA Synthesis Kit (Roche Inc., Mannheim, Germany). Real-time PCR was performed using cDNA diluted 10-fold in sterile water and a SYBR Green PCR Master Mix. The primers for both forward and reverse strands for CYP24A1 were designed based on the mouse and rat sequences using Primer Quest software ([…], San Jose, CA, USA). Reactions (in triplicate) were performed at 50 °C for 2 min, 95 °C for 10 min and then 40 cycles of 95 °C for 15 s, 60 °C for 30 s and 72 °C for 30 s. Data were collected and analyzed on a Roche Light Cycler 480. The amount of the final amplified product for each gene was compared and normalized to the amount of β-actin product as a housekeeping gene using a comparative Ct method.

IFNγ production = test: IFNγ inhibition assay in anti-CD3 activated splenocytes; conditions: for activity at 0.1 µM: Mus musculus, Splenocyte, 72 h, read-out: IFNγ (ratio ± SD)
Protocol: To test whether the 20S(OH)D3 analogs also show anti-inflammatory properties, the inhibition of IFNγ production was performed using our established assay[1],[4],[23]. […] Secosteroids were solubilized in absolute EtOH at 10^−4 M and diluted to 10^−6 M by adding Eagles Minimal Essential Medium (EMEM) containing 9% charcoal-stripped fetal calf serum, 100 U/mL penicillin and 100 µg/mL streptomycin, non-essential amino acids, 2.5 mM 2-mercaptoethanol, 2.5 mM L-glutamine[16]. Splenocytes from mice were isolated, erythrocytes lysed by hypotonic shock, washed twice with EMEM, and suspended at a concentration for 2 × 10^6 cells/mL in EMEM as described above. To each well in a 48-well tissue culture plate, 450 µL of the splenocytes were added. Secosteroids (50 µL of the 10^−6 M stock) or EtOH diluted 1:100 with the above culture medium were added to triplicate wells and then incubated at 37 °C in 5% CO2 in a humidified tissue culture incubator for 2 h, after which 1 µg/well of rat anti-mouse CD3 MOAB was added. After 72 h culture, supernatants from each well were harvested and analyzed by ELISA for levels of D-murine IFNγ (RAD Systems, Minneapolis, MN, USA), according to the manufacturer’s instructions. The concentration of IFNγ is supernatants from cultures containing secosteroids were compared to the concentration of IFNγ in the supernatants of EtOH-treated control cultures, by ANOVA.

rat CYP24A1 = target: T1, rat CYP24A1 (Rattus norvegicus, UniProt Q09128); test: Time courses and product profiles for metabolism of analogs by rat CYP24A1; type: in vitro ADME
T1 construct: made in house; host or cells: E. coli
T1 sequence (Q09128 36-514): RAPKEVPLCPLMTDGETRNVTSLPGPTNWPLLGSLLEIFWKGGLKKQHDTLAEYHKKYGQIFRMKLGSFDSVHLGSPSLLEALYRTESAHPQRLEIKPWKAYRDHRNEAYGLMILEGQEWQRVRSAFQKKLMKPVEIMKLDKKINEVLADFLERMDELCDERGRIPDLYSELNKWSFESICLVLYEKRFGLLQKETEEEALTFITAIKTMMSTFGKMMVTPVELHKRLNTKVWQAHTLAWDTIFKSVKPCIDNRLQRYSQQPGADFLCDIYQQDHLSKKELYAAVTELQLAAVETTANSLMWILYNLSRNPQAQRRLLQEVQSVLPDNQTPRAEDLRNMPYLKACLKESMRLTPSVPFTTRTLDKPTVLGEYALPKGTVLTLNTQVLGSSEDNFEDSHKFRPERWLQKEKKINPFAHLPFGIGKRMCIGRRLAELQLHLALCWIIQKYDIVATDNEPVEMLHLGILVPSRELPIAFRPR
From the text: These were identified from authentic standards as 20S,25(OH)2D3, and the two C24 diastereomers of 20S,24(OH)2D3[23],[27]. One of the C24 diastereomers, 20S,24 R(OH)2D3 is the major product and accounts for almost 70% of the total products. […] There were two major products formed from this analog, RT27 and RT30 (indicated by arrows), which accounted for approximately 20% and 30% of the total products, respectively. Compound 23 (Fig. S1E) was converted to at least 6 different products by the incubation with CYP24A1. In contrast, 13 tested under identical conditions generated only one major product with a retention time of 20 min (RT20) and three minor products (Fig. S1D). By 10 min of incubation, almost all of 13 had been metabolized by CYP24A1.
The activity of CYP24A1 with the different analogs was determined as a function of time to determine the initial linear region that could be used for kinetic studies, and to determine any differences in the pattern between analogs. […] The major product of 13 (Fig. S1C, RT20), accounted for 71% of the total secosteroids (products and substrate) at one min and by 20 min it was 95% of all secosteroids. The time course for 20S(OH)D3 in comparison to 4 and 33, reached maximum product formation early in the incubation, with the amount of product at the end of the incubation being only 2.2-fold higher than at one min. By 20 min, less than 15% of the 20S(OH)D3 had been metabolized. […] While initially being metabolized at the lowest rate of any of the analogs, 33 maintained its initial rate longer with more product being present at the end of the 20 min incubation than for any of the other analogs except 13 (Fig. 6).
Figure 6 Time courses for metabolism of 20S(OH)D3 analogs in phospholipid vesicles by rat CYP24A1. 20S(OH)D3, 4, 13, 23 and 33 were incorporated into phospholipid vesicles at a ratio of 0.018 mol/mol phospholipid and incubated with 0.14 µM rat CYP24A1 at 37 °C. Products were analyzed by HPLC.
Rat CYP24A1, mouse CYP27B1 and adrenodoxin and human adrenodoxin reductase were expressed in E. coli and purified as described before[28],[30],[35]. […] Samples from incubations with CYP24A1 were extracted with dichloromethane and analysed by HPLC using a 25 cm Grace Alltima C18 column, as before[27],[28]. […] Products from incubations with CYP27B1 were similarly extracted with dichloromethane and analyzed by reverse phase HPLC using a 15 cm Grace Smart C18 column and an acetonitrile in water gradient (10 min 45% to 100% acetonitrile then 20 min at 100% acetonitrile, at 0.5 mL/min).
Supplementary Fig. S1. […] Samples were analyzed by reverse-phase HPLC using an acetonitrile in water gradient as described in the Methods. […]

[1] = rats; cited from earlier work

Compound	fold induction at 0.1 µM (CYP24A1 gene expression)	decrease of IFNγ production level (IFNγ production; 100 nM) [%]	activity at 0.1 µM (IFNγ production) [%]	amount of product at end of incubation relative to one min (rat CYP24A1; 20 min incubation versus one min) [fold]	substrate metabolized by CYP24A1 (rat CYP24A1; by 20 min)	hypercalcemia [1]	substrate metabolized by CYP24A1 (rat CYP24A1; by 10 min of incubation)	metabolism by CYP24A1 relative to 20S(OH)D3 (rat CYP24A1; by 20 min, fold greater than 20S(OH)D3) [fold]
C=C1CC[C@H](O)C/C1=C/C=C1\CCC[C@@]2(C)[C@H]1CC[C@@H]2[C@@](C)(O)CCCC(C)C [20S(OH)D3, 20S-hydroxyvitamin D3]	4.4	48	51.7 ± 4.6	2.2	less than 15%	does not cause hypercalcemia	–	–
C=C1CC[C@H](O)C/C1=C/C=C1\CCC[C@@]2(C)[C@H]1CC[C@@H]2[C@@](C)(O)CCOC(C)C [compound 13]	0.8	–	82.4 ± 3.1	–	–	–	almost all	6
